Entries after “also recorded” stand apart in the source; their conditions may differ. Read-outs that look alike come from different tables or passages of the source.
Columns and labels:
Type in all cases: cell-based
CRTC3 = CRTC3 phosphorylation in macrophages (phosphoproteomics, immunoblotting)
Procedure: RAW264.7 cells were labelled using the Stable Isotope Labelling of Amino Acids in Cell Culture (SILAC) method. […] The cells were lysed in detergent-free lysis buffer (8 M urea, 50 mM Tris pH8.2, 10 mM glycerol 2-phosphate, 50 mM sodium fluoride, 5 mM sodium pyrophosphate, 1 mM EDTA, 1 mM sodium orthovanadate, 10 mM DTT, 1 mM PMSF, 1 μg/ml aprotinin, 1 μg/ml leupeptin), the extract clarified by centrifugation and protein concentration determined using the Bradford method. 2 mg of cell extract protein from each experimental condition were mixed in a 1:1:1 ratio and then alkylated with 50 mM iodoacetamide for 30 min. […] Phosphopeptides from these samples were enriched using a standard Fe^3+-IMAC enrichment protocol^32 and measured by LC-MS/MS. […] The data was analysed using MaxQUANT^33.
Cells were rinsed in ice-cold PBS and extracted in lysis buffer (50 mM Tris/HCl pH 7.4, 1 mM EDTA, 1 mM EGTA, 50 mM NaF, 5 mM sodium pyrophosphate, 10 mM sodium β-glycerol 1-phosphate, 1 mM dithiothreitol, 1 mM sodium orthovanadate, 0.27 M sucrose, 1% (v/v) Triton X-100, 1 μg/ml aprotinin, 1 μg/ml leupeptin and 1 mM phenylmethylsulphonyl fluoride). Cell extracts were clarified by centrifugation at 14000×g for 10 min at 4° C. and protein concentrations were determined using the Bradford assay. […]

CREB luciferase reporter = CREB luciferase reporter assay in HEK293 cells; details: HEK293, 2 μM MRT67307, 10 μM forskolin 2 h
Procedure: FIG. 5. […] HEK293 cells were co-transfected with DNA encoding a CREB luciferase reporter construct and pTK-RL. […] Luciferase activity was measured with a dual luciferase assay system (Promega) and was normalized to Renilla luciferase activity (n=3, mean±SEM).
HEK293 cells were co-transfected with DNA encoding FLAG-CRTC3 or phosphomutants along with a CREB firefly luciferase reporter construct (pCRE-luc from Stratagene) and pTK-RL which encodes renilla luciferase under the control of a constitutive promoter. At 24 h post-transfection, cells were treated with or without 10 μM KIN112 for a further 24 h. Firefly luciferase activity was measured with a dual luciferase assay system (Promega) and was normalized to Renilla luciferase activity.

RAW264.7 macrophages = assay: IL-10 mRNA in RAW264.7 cells with shRNA knockdown of SIKs; details: for IC50: Mus musculus, RAW264.7, 1 h
Procedure: . (FIG. 16A) mRNA abundance of SIK1, SIK2 and SIK3 in RAW264.7 macrophages. Gene expression was measured by qPCR. The number of copies of each SIK mRNA was normalized to GAPDH. (mean±SD, n=3). (FIG. 16B) The efficiency of SIK knock-down. RAW264.7 cells were transduced with lentiviral vectors encoding a control shRNA or shRNAs targetting SIK1, SIK2 and SIK3. The expression of SIK1, SIK2 and SIK3 was measured by qPCR and normalized to that of control cells using GAPDH (mean±SD, n=3). […]. The levels of IL-10 mRNA were measured by qPCR and normalized using GAPDH. Data are presented with the highest level of expression set to 1 (mean±SD, n=3). […] (FIG. 16D) Increased IL-10 expression in cells with decreased SIK expression. […].
RNAi in Macrophages RAW264.7 cells or BMDMs were transfected with 100 pmol of SMARTpool siRNA oligos against CREB, CRTC1, CRTC2, CRTC3 or a non-targetting control (Dharmacon) using AMAXA nucleofection. Cells were cultured for 24 h prior to incubation with inhibitors for 1 h followed by stimulation for 1 h with 100 ng/ml LPS. Gene expression was measured by real-time quantitative PCR. For shRNA knockdown of SIKs, lentivirus was generated according to the manufacturer's instructions (Sigma) and RAW264.7 cells were infected using virus harvested 48 and 72 h post-transfection. Infected cells were selected using 3 μg/ml puromycin. QPCR

O=C(NCCCNc1nc(Nc2cccc(CN3CCOCC3)c2)ncc1C1CC1)C1CCC1 [MRT67307]
phosphorylation of CRTC3 (CRTC3; 2 μM MRT67307, Pam3CSK4-stimulated macrophages, phosphoproteomic study): robustly dephosphorylated at Ser62, Ser329 and Ser370; also recorded: blocked
phosphorylation of CRTC3 at Ser370 (CRTC3; LPS stimulation): blocked
CREB-dependent luciferase transcription (CREB luciferase reporter): increases

COc1ccc(N(C(=O)Nc2c(C)cccc2C)c2cc(Nc3ccc(N4CCN(C)CC4)cc3)ncn2)c(OC)c1 [HG-9-91-01, 1-(2,4-dimethoxyphenyl)-3-(2,6-dimethylphenyl)-1-(6-((4-(4-methylpiperazin-1-yl)phenyl)amino)pyrimidin-4-yl)urea]
IC50 (RAW264.7 macrophages; read-out: IC50 for stimulation of IL-10 mRNA, SIK1/2/3 shRNA cells, 1 μg/ml Pam3CSK4 1 h): 150 ± 20 nM
IC50 (RAW264.7 macrophages; read-out: IC50 for stimulation of IL-10 mRNA, control shRNA cells, 1 μg/ml Pam3CSK4 1 h): 260 ± 10 nM
IL-10 mRNA expression in SIK-depleted versus wild-type macrophages (RAW264.7 macrophages; suboptimal concentration (100 nM)): 4 fold

— US10233157B2, “SIK inhibitor for use in a method of treating an inflammatory and/or immune disorder” (Dana-Farber Cancer Institute, Inc., priority 2012, dated 2019)
